In brackets after ≈: the same amount, converted by molar mass. A value given as a limit tells only on which side of the number the result lay.

A word on the solubility: it is how much of the substance goes into solution per volume. A word on the inhibition: it is the change of the read-out against control, counted positive when it falls. In general, IC50 refers to the midpoint of a concentration-inhibition curve.

A short description of data set [1]: Aqueous solubility of the compound in 2% DMSO at pH 7.4 by HPLC analysis. The class given is physicochemical. The conditions noted are these: aqueous medium with 2% DMSO.
Data set [2] concerns Pseudomonas aeruginosa. In words: Agonist activity at Pseudomonas aeruginosa PqsR expressed in Escherichia coli DH5alpha assessed as induction of transcriptional activity at 5 uM by beta-galactosidase reporter gene assay relative to PQS. On the technique in general: A reporter such as luciferase makes a cellular process visible.
In data set [3] the test system is Pseudomonas aeruginosa. Nature of the data set: Antagonist activity at Pseudomonas aeruginosa PqsR expressed in Escherichia coli DH5alpha assessed as inhibition of PQS-induced transcriptional activity at 50 nM by beta-galactosidase reporter gene assay relative to PQS.
The subject of data set [4] is Pseudomonas aeruginosa. Nature of the data set: Antagonist activity at Pseudomonas aeruginosa PqsR expressed in Escherichia coli DH5alpha assessed as inhibition of PQS-induced transcriptional activity at 5 uM by beta-galactosidase reporter gene assay relative to PQS.
Data set [5] relates to Pseudomonas aeruginosa. Nature of the data set: Agonist activity at Pseudomonas aeruginosa PqsR expressed in Escherichia coli DH5alpha assessed as induction of transcriptional activity at 1 uM by beta-galactosidase reporter gene assay relative to PQS.
Data set [6] is described as follows: Antagonist activity at Pseudomonas aeruginosa PqsR expressed in Escherichia coli DH5alpha assessed as inhibition of PQS-induced transcriptional activity by beta-galactosidase reporter gene assay relative to PQS.
Data set [7] concerns Pseudomonas aeruginosa. In words: Antivirulence activity in Pseudomonas aeruginosa PA14 assessed as reduction of extracellular level of PQS at 15 uM by UHPLC-MS/MS analysis relative to control. The arrangement: scale not given: the % may be the effect or the level left. The class given is functional.
For data set [8], the system named is Pseudomonas aeruginosa. In words: Antivirulence activity in Pseudomonas aeruginosa PA14 assessed as reduction of extracellular level of pyocyanin at 15 uM relative to control. The class given is functional. The arrangement: scale not given: the % may be the effect or the level left.
For data set [9], the system named is Pseudomonas aeruginosa. In words: Antivirulence activity in Pseudomonas aeruginosa PA14 assessed as reduction of extracellular level of pyocyanin. The class given is functional.
Data set [10] is described as follows: Metal chelating activity of the compound assessed as CAS iron-chelation after 15 mins. The class given is physicochemical. The conditions noted are these: 0.25 h.
Data set [11] deals with Pseudomonas aeruginosa. In words: Growth inhibition of Pseudomonas aeruginosa. Format: organism-based. The conditions noted are these: in vivo.

On to `CCCCCCCc1[nH]c2ccc([N+](=O)[O-])cc2c(=O)c1C(=O)OCC`, for which, in data set [1], the concentration in solution (solubility) was 5 µM (≈ 1.8 µg/mL). In the data set on Pseudomonas aeruginosa [2], the Activity was 0%. For the same molecule, the inhibition was -8% in the data set on Pseudomonas aeruginosa [3] and 20% in the data set on Pseudomonas aeruginosa [4].

As for `CCCCCCCc1[nH]c2ccccc2c(=O)c1CO`, in [1], the solubility amounted to 50 µM (≈ 13.7 µg/mL). Further, the Activity in the data set with Pseudomonas aeruginosa [2] is 0.49%. Moreover, the inhibition with Pseudomonas aeruginosa [3] was determined as 5%; in the data set on Pseudomonas aeruginosa [4], 28%.

For the molecule `CCCCCCCc1cc(=O)c2ccccc2[nH]1`, the Activity in the data set with Pseudomonas aeruginosa [5] is 0.75%.

For the molecule `CCCCCCCc1cc(=O)c2cnccc2[nH]1`, the concentration in solution in data set [1] (solubility) was 50 µM (≈ 12.2 µg/mL). Also, in the data set on Pseudomonas aeruginosa [2], the Activity is 0.82%. For the same molecule, the inhibition came out at 8% in the data set on Pseudomonas aeruginosa [3] and 2% in the data set on Pseudomonas aeruginosa [4].

On to `CCCCCCCc1[nH]c2ccc([N+](=O)[O-])cc2c(=O)c1CO`, for which the solubility in data set [1] came to 5 µM (≈ 1.59 µg/mL). In addition, the Activity in the data set on Pseudomonas aeruginosa [2] was 0%; in the data set with Pseudomonas aeruginosa [7] it was 33%; with Pseudomonas aeruginosa [8], 83%; in data set [10], “Not Active”; in the data set on Pseudomonas aeruginosa [11], “Non-toxic”. Further, the inhibition in the data set with Pseudomonas aeruginosa [3] amounted to 45%; in the data set on Pseudomonas aeruginosa [4], 100%. Also, the results for the IC50 (in data set [6]; with Pseudomonas aeruginosa [9]) were 72 nM and 3800 nM, respectively.

As to `CCCCCCCc1[nH]c2ccccc2c(=O)c1C(=O)O`, in data set [1], the concentration in solution (solubility) came to 15 µM (≈ 4.31 µg/mL). In addition, the Activity in the data set on Pseudomonas aeruginosa [2] amounted to 0.73%. In addition, the values for the inhibition in the data set with Pseudomonas aeruginosa [3] and in the data set with Pseudomonas aeruginosa [4] were 12% and 41%, respectively.

Molecule `CCCCCCCc1[nH]c2ccncc2c(=O)c1C(=O)OCC` registered a solubility in [1] of 50 µM (≈ 15.8 µg/mL). For the same molecule, in the data set on Pseudomonas aeruginosa [2], the Activity came to 0.02%. Also, the inhibition in the data set on Pseudomonas aeruginosa [3] is 24%; in the data set with Pseudomonas aeruginosa [4], 76%.

Turning to `CCOCCCCc1cc(=O)c2ccccc2[nH]1`, the solubility in data set [1] is over 200 µM. Moreover, the Activity in the data set on Pseudomonas aeruginosa [2] is 0.31%. Besides, the inhibition in the data set on Pseudomonas aeruginosa [3] came out at 54%; in the data set with Pseudomonas aeruginosa [4], 42%.

For the molecule `CCCCCOCc1[nH]c2ccc([N+](=O)[O-])cc2c(=O)c1C(=O)OCC`, in [1], the solubility was 15 µM (≈ 5.44 µg/mL). In addition, in the data set on Pseudomonas aeruginosa [2], the Activity is 0%. Moreover, the inhibition in the data set on Pseudomonas aeruginosa [3] amounted to 2%; in the data set with Pseudomonas aeruginosa [4], 13%.

Molecule `CCCCCCCc1[nH]c2ccccc2c(=O)c1C(=O)NO` came in with a solubility in data set [1] of over 200 µM. Also, the Activity in the data set on Pseudomonas aeruginosa [2] worked out at 0.83%. Also, the inhibition with Pseudomonas aeruginosa [3] amounted to 15%; with Pseudomonas aeruginosa [4], 29%.

Regarding `CCCCCCCc1[nH]c2ccc([N+](=O)[O-])cc2c(=O)c1C(=O)O`, the concentration in solution in data set [1] (solubility) was 15 µM (≈ 4.99 µg/mL). Besides, the Activity in the data set on Pseudomonas aeruginosa [2] is 0.78%. In addition, the inhibition in the data set on Pseudomonas aeruginosa [3] was 11%; with Pseudomonas aeruginosa [4], 34%.

With `CCCCCCCc1[nH]c2ccc([N+](=O)[O-])cc2c(=O)c1O`, in data set [1], the solubility was under 5 µM. In addition, the Activity in the data set on Pseudomonas aeruginosa [2] was 1.25%. The inhibition with Pseudomonas aeruginosa [3] is -31%; with Pseudomonas aeruginosa [4], -29%.

For the molecule `CCCCCCCc1[nH]c2ccccc2c(=O)c1C(N)=O`, the concentration in solution in [1] (solubility) came to 5 µM (≈ 1.43 µg/mL). For the same molecule, in the data set with Pseudomonas aeruginosa [2], the Activity turned out to be 0.65%. Besides, the inhibition worked out at 8% in the data set with Pseudomonas aeruginosa [3] and 27% with Pseudomonas aeruginosa [4].

With `CCCCCOCc1cc(=O)c2ccccc2[nH]1`, in data set [1], the solubility is over 200 µM. In addition, the Activity with Pseudomonas aeruginosa [2] was determined as 0.89%. Further, the inhibition in the data set on Pseudomonas aeruginosa [3] stood at 11%; with Pseudomonas aeruginosa [4], 6%.

As for `CCCCCCCc1[nH]c2ccncc2c(=O)c1C(=O)O`, the solubility in data set [1] was found to be 50 µM (≈ 14.4 µg/mL). The Activity in the data set with Pseudomonas aeruginosa [2] turned out to be 0.66%. Besides, the inhibition was found to be 6% with Pseudomonas aeruginosa [3] and 20% with Pseudomonas aeruginosa [4].

In data set [1], `CCCCCOCc1[nH]c2ccc([N+](=O)[O-])cc2c(=O)c1C(=O)O` registered a solubility of 50 µM (≈ 16.7 µg/mL). In the data set with Pseudomonas aeruginosa [2], the Activity was determined as 0.48%. Also, the inhibition came to 7% in the data set on Pseudomonas aeruginosa [3] and 6% with Pseudomonas aeruginosa [4].

As for `CCCCCCCc1[nH]c2ccccc2c(=O)c1[N+](=O)[O-]`, the solubility in data set [1] was under 5 µM. Moreover, the Activity in the data set on Pseudomonas aeruginosa [2] worked out at 0.84%. The figures for the inhibition in the data set with Pseudomonas aeruginosa [3] and in the data set with Pseudomonas aeruginosa [4] were 14% and 17%, respectively.

For `CCCCCOCc1cc(=O)c2cc(C(F)(F)F)ccc2[nH]1`, the concentration in solution in [1] (solubility) was 15 µM (≈ 4.7 µg/mL). The Activity in the data set with Pseudomonas aeruginosa [2] is 0%; with Pseudomonas aeruginosa [7], 21%; in the data set on Pseudomonas aeruginosa [8] it was 29%; in the data set with Pseudomonas aeruginosa [11], “Non-toxic”. In addition, the inhibition was found to be 29% with Pseudomonas aeruginosa [3] and 100% with Pseudomonas aeruginosa [4]. The IC50 in data set [6] is 172 nM.

For `CCCCCCCc1cc(O)c2ccccc2n1`, the concentration in solution in data set [1] (solubility) came to 15 µM (≈ 3.65 µg/mL).

In the case of `CCCCCCCc1[nH]c2ccc([N+](=O)[O-])cc2c(=O)c1C(=O)NO`, the solubility in [1] was over 200 µM. Further, the Activity in the data set with Pseudomonas aeruginosa [2] amounted to 0.3%. The inhibition came out at 30% in the data set on Pseudomonas aeruginosa [3] and 78% with Pseudomonas aeruginosa [4].

Regarding `CCCCCCCc1cc(OC)c2ccccc2n1`, the concentration in solution in data set [1] (solubility) was 5 µM (≈ 1.29 µg/mL). For the same molecule, in the data set on Pseudomonas aeruginosa [2], the Activity was determined as 0.03%. The inhibition is -23% in the data set with Pseudomonas aeruginosa [3] and -6% with Pseudomonas aeruginosa [4].

Consider `CCCCCOCc1cc(=O)c2cc([N+](=O)[O-])ccc2[nH]1`, for which the concentration in solution in data set [1] (solubility) came to 15 µM (≈ 4.35 µg/mL). Also, the Activity in the data set on Pseudomonas aeruginosa [2] is 0%; in the data set with Pseudomonas aeruginosa [7], 23%; with Pseudomonas aeruginosa [8], 27%; in the data set with Pseudomonas aeruginosa [11], “Non-toxic”. Also, the inhibition was found to be 49% with Pseudomonas aeruginosa [3] and 100% in the data set on Pseudomonas aeruginosa [4]. Further, the IC50 in data set [6] was determined as 253 nM.

In the case of `CCCCCCCc1[nH]c2ccccc2c(=O)c1N`, the solubility in data set [1] stood at 50 µM (≈ 12.9 µg/mL). In the data set with Pseudomonas aeruginosa [2], the Activity was 1.22%. Besides, the inhibition is -4% in the data set with Pseudomonas aeruginosa [3] and -7% in the data set on Pseudomonas aeruginosa [4].

As for `CCOCCCCc1[nH]c2ccc([N+](=O)[O-])cc2c(=O)c1C(=O)OCC`, the solubility in data set [1] worked out at 5 µM (≈ 1.81 µg/mL). Moreover, the Activity with Pseudomonas aeruginosa [2] worked out at 0.09%. For the same molecule, the inhibition with Pseudomonas aeruginosa [3] came out at 2%; in the data set with Pseudomonas aeruginosa [4], 27%.

Consider `CCOCCCCc1[nH]c2ccc([N+](=O)[O-])cc2c(=O)c1C(=O)O`, for which the solubility in data set [1] turned out to be 50 µM (≈ 16.7 µg/mL). Besides, the Activity in the data set on Pseudomonas aeruginosa [2] was determined as 0.42%. In addition, the inhibition in the data set with Pseudomonas aeruginosa [3] is 1%; in the data set on Pseudomonas aeruginosa [4] it was 33%.

In turn, `CCCCCCCc1cc(=O)c2cc(C(F)(F)F)ccc2n1C` came in with a solubility in data set [1] of 5 µM (≈ 1.63 µg/mL). In addition, the Activity was 0% with Pseudomonas aeruginosa [2], 8.9% in the data set on Pseudomonas aeruginosa [7], 58% in the data set with Pseudomonas aeruginosa [8] and “Non-toxic” in the data set on Pseudomonas aeruginosa [11]. The figures for the inhibition with Pseudomonas aeruginosa [3] and in the data set on Pseudomonas aeruginosa [4] were 31% and 100%, respectively. Further, the half-inhibitory concentration (IC50) in [6] was found to be 270 nM.

`CCCCCCCc1[nH]c2ccccc2c(=O)c1C(=O)OCC` gave a solubility in data set [1] of 5 µM (≈ 1.58 µg/mL). In addition, the Activity in the data set with Pseudomonas aeruginosa [2] worked out at 0%. In addition, the inhibition in the data set with Pseudomonas aeruginosa [3] turned out to be 18%; with Pseudomonas aeruginosa [4], 32%.

Take `CCCCCCc1cc(=O)c2cc(C(F)(F)F)ccc2n1C`: the solubility in [1] was 15 µM (≈ 4.67 µg/mL). Moreover, the results for the Activity in the data set on Pseudomonas aeruginosa [2] and in the data set with Pseudomonas aeruginosa [11] were 0% and “Non-toxic”, respectively. In addition, the results for the inhibition in the data set on Pseudomonas aeruginosa [3] and in the data set on Pseudomonas aeruginosa [4] were 45% and 100%, respectively. The half-inhibitory concentration (IC50) in data set [6] worked out at 229 nM.

The molecule `CCCCCCCc1[nH]c2ccc([N+](=O)[O-])cc2c(=O)c1C(N)=O` showed a solubility in [1] of 15 µM (≈ 4.97 µg/mL). Further, the Activity was 0% in the data set with Pseudomonas aeruginosa [2]; 37% in the data set on Pseudomonas aeruginosa [7]; 81% in the data set on Pseudomonas aeruginosa [8]; “Not Active” in [10]; “Non-toxic” in the data set with Pseudomonas aeruginosa [11]. The inhibition with Pseudomonas aeruginosa [3] is 60%; in the data set on Pseudomonas aeruginosa [4] it was 100%. Also, the IC50 in data set [6] was found to be 35 nM; in the data set on Pseudomonas aeruginosa [9], 2000 nM.

Source of the values: ChEMBL document CHEMBL3232888, “Optimization of anti-virulence PqsR antagonists regarding aqueous solubility and biological properties resulting in new insights in structure-activity relationships” (Eur J Med Chem, 2014).
